Experiments:
[1] = tested on: ERK 1,2 phosphorylation in HCT116 cells expressing WT BRAF; test: HTRF assay for P-ERK determination in HCT116 cells (paradoxical BRAF activation); assay type: cell-based; conditions: for Emax: Homo sapiens, HCT-116, read-out: Percentage of maximum paradox inducing effect from dabrafenib
Excerpt: (§1) DMEM no-phenol red medium supplemented with L-glutamine was purchased from (Thermo Fisher Scientific). Fetal bovine serum (FBS) was purchased from VWR. Advanced ERK phospho-T202/Y204 kit-10,000 tests was purchased from Cisbio cat #64AERPEH. A375 and HCT116 cells were originally obtained from ATCC and banked by the Roche repository. 384-well microplates were purchased from Greiner Bio-One, 384-well, (With Lid, HiBase, Low volume cat 784-080).
(§2) A375 is a cellular cancer model expressing V600E mutated BRAF and HCT116 a cellular cancer model expressing WT BRAF. First generation BRAF inhibitors such as e.g. dabrafenib induce a paradox effect on tumour cells in that they inhibit the growth of V600E mutated BRAF cells (such as e.g. A375), while they activate growth in WT BRAF cells (such as e.g. HCT 116). ERK 1,2 phosphorylation (terminal member of the phosphorylation cascade of the MAPK pathway) is hereafter reported as main readout for the activation status of the MAPK pathway. Prior to the assay, A375 and HCT116 cell lines are maintained in DMEM no-phenol red medium supplemented with 10% fetal bovine serum (FBS). Following compound treatment, P-ERK levels are determined by measuring FRET fluorescence signal induced by selective binding of 2 antibodies provided in the mentioned kit (Cisbio cat #64AERPEH) on ERK protein when phosphorylated at Thr202/Tyr204. Briefly, 8000 cells/well in 12 μl media/well are plated in the 384-well plate and left overnight in the incubator (at 37° C. with 5% CO2-humidified atmosphere), the following day the plate is treated in duplicate with test compounds, dabrafenib and PLX8394 (the latter two as controls) at the following final drug concentrations: 10 μM-3 μM-1 μM-0.3 μM-0.1 μM-0.03 μM-0.01 μM-0.003 μM-0.001 μM, all wells are subjected to DMSO normalization and drug incubation occurs for 1 hour. Then, 4 μl of a 4× lysis buffer supplied with the kit are added to the wells, the plate is then centrifuged for 30 second (300 rcf) and incubated on a plate shaker for 1 h at RT.
(§3) At the end of the incubation 4 μL/well of advanced P-ERK antibody solution (prepared according to manufacturer's instruction) followed by 4 μL/well of criptate P-ERK antibody solution (prepared according to manufacturer's instruction) (Cisbio cat #64AERPEH) are added to test wells.
(§4) In order to allow proper data normalization control wells non drug treated reported in the following table are always included in each plate (according to manufacturer's instruction):
(§5) The plate is then centrifuged at 300 rcf for 30 second, sealed to prevent evaporation and incubated overnight in the dark at room temperature.
The plate is then analyzed and fluorescence emission value collected through a Pherastast FSX (BMG Labtech) apparatus at […].
(§6) The obtained fluorescence values are processed according to the formula Ratio=Signal (620 nm)/Signal (625 nm)*10000 then the average of the ratio on the blank is subtracted to all values.
Data are normalized in the case of HCT116 cells (BRAF activation) considering the average of the ratio (blank subtracted) derived by DMSO only treated cells as 0% and by considering the average of the ratio (blank subtracted) derived by dabrafenib treated cells at the concentration which provides the highest signal as 100%. Individual points are fitted with either sigmoidal or bell shape curves, and the percentage of activation compared to maximum dabrafenib-mediated activation is determined. The EC50 is the concentration at which activation equal to 50% of the maximum achieved by dabrafenib is obtained.
The Percentage of Maximum paradox inducing effect from dabrafenib is determined by evaluating the percentage at which the test compound induce its maximum P-ERK signal as percentage of the highest signal produced by dabrafenib within the dose range tested.

[2] = target: CRAF (Homo sapiens, UniProt P04049); test: Kd for RAF kinases: CRAF; assay type: binding
CRAF, sequence (P04049 whole entry): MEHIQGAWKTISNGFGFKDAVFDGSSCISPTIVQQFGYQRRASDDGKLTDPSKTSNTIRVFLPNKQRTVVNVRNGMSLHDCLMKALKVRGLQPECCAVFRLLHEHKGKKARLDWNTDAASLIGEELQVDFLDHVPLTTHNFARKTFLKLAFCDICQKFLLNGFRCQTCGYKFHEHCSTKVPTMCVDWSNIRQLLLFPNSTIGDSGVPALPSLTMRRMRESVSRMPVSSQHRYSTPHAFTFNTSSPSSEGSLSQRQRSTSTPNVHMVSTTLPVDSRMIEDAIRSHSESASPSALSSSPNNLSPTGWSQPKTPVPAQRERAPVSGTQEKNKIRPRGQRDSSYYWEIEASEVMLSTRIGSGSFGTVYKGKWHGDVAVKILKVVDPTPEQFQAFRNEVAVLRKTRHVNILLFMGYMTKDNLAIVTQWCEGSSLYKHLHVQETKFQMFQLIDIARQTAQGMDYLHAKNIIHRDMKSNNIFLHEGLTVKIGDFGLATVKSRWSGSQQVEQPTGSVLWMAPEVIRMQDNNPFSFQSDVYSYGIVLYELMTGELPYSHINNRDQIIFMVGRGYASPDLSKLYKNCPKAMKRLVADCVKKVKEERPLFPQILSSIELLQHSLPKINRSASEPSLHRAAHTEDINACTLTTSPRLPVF

[3] = target: BRAF (Homo sapiens, UniProt P15056); test: Kd for RAF kinases: BRAF; assay type: binding
BRAF, sequence (P15056 whole entry): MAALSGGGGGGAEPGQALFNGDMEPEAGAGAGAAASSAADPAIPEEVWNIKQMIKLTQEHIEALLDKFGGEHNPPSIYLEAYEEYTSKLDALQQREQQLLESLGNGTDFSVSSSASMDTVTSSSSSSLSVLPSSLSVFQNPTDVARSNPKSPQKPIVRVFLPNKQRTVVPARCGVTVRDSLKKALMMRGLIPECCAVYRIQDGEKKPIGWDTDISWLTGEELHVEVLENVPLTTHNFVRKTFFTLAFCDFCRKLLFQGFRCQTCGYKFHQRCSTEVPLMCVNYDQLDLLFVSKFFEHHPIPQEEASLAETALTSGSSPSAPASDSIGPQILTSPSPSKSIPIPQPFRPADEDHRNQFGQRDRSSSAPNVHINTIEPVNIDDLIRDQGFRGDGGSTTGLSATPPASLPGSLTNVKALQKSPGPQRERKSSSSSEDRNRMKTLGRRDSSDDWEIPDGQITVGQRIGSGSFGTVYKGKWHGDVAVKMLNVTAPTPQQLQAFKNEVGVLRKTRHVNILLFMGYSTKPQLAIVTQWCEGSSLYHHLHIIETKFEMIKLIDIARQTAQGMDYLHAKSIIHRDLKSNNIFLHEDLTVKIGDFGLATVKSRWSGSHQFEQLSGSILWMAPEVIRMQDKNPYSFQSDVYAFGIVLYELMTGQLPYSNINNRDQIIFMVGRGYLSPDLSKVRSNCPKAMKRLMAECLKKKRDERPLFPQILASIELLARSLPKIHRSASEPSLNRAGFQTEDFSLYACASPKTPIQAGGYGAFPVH

[4] = tested on: ERK 1,2 phosphorylation in A375 cells expressing V600E mutated BRAF; test: HTRF assay for P-ERK determination in A375 cells (BRAF inhibition); assay type: cell-based; conditions: Homo sapiens, A-375, 1 h, read-out: pERK IC50 A375
Excerpt: as §1, with “repository.” for “repository. 384-well microplates were purchased from Greiner Bio-One, 384-well, (With Lid, HiBase, Low volume cat 784-080).”
as §2, with “First generation BRAF inhibitors such as e.g. dabrafenib induce a paradox effect on tumour cells in that they inhibit the growth of V600E mutated BRAF cells (such as e.g. A375), while they activate growth in WT BRAF cells (such as e.g. HCT 116).” left out, “Following compound treatment, P-ERK levels are determined by measuring FRET fluorescence signal induced by selective binding of 2 antibodies provided in the mentioned kit (Cisbio cat #64AERPEH) on ERK protein when phosphorylated at Thr202/Tyr204.” left out
as §3, §4, §5, §6
Data are normalized in the case of A375 cells (BRAF inhibition) considering the average of the ratio (blank subtracted) derived by DMSO only treated cells as 100% and by considering the average of the ratio (blank subtracted) derived by 10 uM dabrafenib treated cells as 0%. Mean of the normalized points are fitted with sigmoidal curve and IC50 determined.

[5] = target: BRAF (V600E) (Homo sapiens, UniProt P15056, V600E); test: Kd for RAF kinases: BRAF (V600E); assay type: binding
BRAF (V600E), sequence (P15056 whole entry V600E): as the sequence (P15056 whole entry) above, with V600E counted along it

With CCC(C)S(=O)(=O)Nc1cccc(Oc2ccc3ncn(C)c(=O)c3c2)c1C#N (racemic) [Example 10, (RS)—N-[2-cyano-3-(3-methyl-4-oxo-quinazolin-6-yl)oxy-phenyl]butane-2-sulfonamide] the Emax [1] was 21%, the Kd [2] was 6.8 nM and the Kd [3] was 3.9 nM. For the same compound, the IC50 [4] was 8.8 nM and the Kd [5] was 14.4 nM.
Cn1cnc2ccc(Oc3cccc(NS(=O)(=O)C4CCCC4)c3C#N)cc2c1=O [Example 8, N-[2-cyano-3-(3-methyl-4-oxo-quinazolin-6-yl)oxy-phenyl]cyclopentanesulfonamide] was tested, and the Emax [1] was 63%, the EC50 ([1]; read-out: P-ERK EC50 conc. at which the compound induces p-ERK activation of 50% of that induced by dabrafenib (Positive control paradox inducer) HCT-116, HCT-116 cells, 1 hour drug incubation, not applicable = activation does not reach 50% of dabrafenib maximum) was 412 nM and the Kd [2] was 1.8 nM. The Kd [3] was 3.3 nM, the IC50 [4] was 5.3 nM and the Kd [5] was 7 nM.
